Key:
[1] = test system: climbing behaviour in mice, induced by apomorphine (dopamine receptors); assay: Apomorphine climbing test (ACT) in mice; format: in vivo; settings: Mus musculus, 0.75 mg/kg apomorphine HCl sc after 30 min, scored at 10 and 20 min
From the text: Apomorphine Climbing Test In Mice
The ability of dopamine receptor antagonists to inhibit the behavioural effects in rodents caused by dopamine agonists such as apomorphine is a well established criterion for predicting the antipsychotic efficacy of these drugs in man (see e.g. W. C. Bowman and M. J. Rand, Textbook of Pharmacology, 2nd ed., 1980, 15, 6). A particularly relevant test in this respect is the apomorphine climbing test (ACT) which measures the ability of a dopamine antagonist to inhibit the climbing behaviour in mice, induced by the subcutaneous or oral administration of apomorphine. Activity in this test, following systemic and oral administration, has been widely used as a predictor of antipsychotic activity i.e. anti-schizophrenic activity (see e.g. J. T Strupczewski et.al., J. Med. Chem., 1995, 38, 1119). Mice treated with apomorphine HCl tend to adopt a vertical position along the wall of a wire mesh cylinder, standing or climbing. This climbing behaviour is considered to be elicited by apomorphine-mediated stimulation of dopamine receptors. […] Test compounds which modulate this climbing behaviour may have anti-psychotic activity.
The various treatments are randomly distributed over the mice. Each experiment consists of 1+n treatment groups: 1 being a control group of 12 mice receiving apomorphine and vehicle subcutaneously or being a control group of 12 mice receiving apomorphine subcutaneously and vehicle orally; n being (usually 4) compound groups of 12 mice receiving apomorphine and test compound subcutaneously or being compound groups of 12 mice receiving apomorphine subcutaneously and test compound orally.
Experiments are performed in 3 runs of 20 mice each. The mice are marked and weighed, test compound or vehicle is administered subcutaneously and the mice are placed in small Macrolon cages of 17×11×13 cm, 5 mice per cage, or test compound or vehicle is administered orally and the mice are placed in Macrolon cages of 29×11×13 cm, 5 mice per cage. After 30 min 0.75 mg/kg apomorphine HCl is administered subcutaneously in mice treated subcutaneously with vehicle or test compound, or 0.75 mg/kg apomorphine HCl is administered subcutaneously in mice treated orally with vehicle or test compound, and the mice are placed individually in a wire mesh cylinder (diameter 12 cm, height 14 cm).
At 10 min after the treatment with apomorphine the climbing behaviour of each mouse is observed and expressed as a score, according to the following grade: […]
4 paws on the floor score 0
1 or 2 paws holding the wall score 1
3 or 4 paws holding the wall score 2
At 20 min after the treatment with apomorphine the climbing behaviour is observed and scored again. For each treatment group the mean score per mouse is determined. The score of the control group should be at least 1.0; if not, the trial is rejected. The final result per group is expressed as the percentage over the control group.
The results of this test for the present test compounds are denoted in Table I (subcutaneous and oral administration of test compound).

catalepsy = assay: Catalepsy in rats (CATR); format: in vivo, Male Wistar rats
Description: (§1) Catalepsy in rats: Male Wistar rats (100-125 g, Olac UK) were used for catalepsy experiments. Catalepsy was assessed as described previously (Broekkamp et al, Naunyn Schmiedeberg's Arch. Pharmacol. 338, 191 1988). Briefly, rats were tested in 6 different observation trials in which the animals were placed in abnormal postures and scored positively with one point for maintaining the imposed posture for 10s. The imposed postures were; vertical clinging to a grid, upright standing with a high support for the front paws, extension of hindlegs, placement on back, placement of spatula in the mouth and rotation in a wire mesh cylinder.
(§2) Theoretically a maximum score of 6 can be reached. Catalepsy was assessed at 60 and 120 minutes after drug administration. The data were evaluated by 2 way ANOVAR followed by a Newman Kools post hoc test and ED50 values calculated (Table II).

Catalepsy in rats (CATR) = format: in vivo, Male Wistar rats; settings: rat; catalepsy assessed at 60 and 120 minutes after drug administration
Description: as §1, §2

[2] = po administration of test compound
[3] = sc administration of test compound

CN1CCC(=C(c2ccc(F)cc2)c2cccs2)CC1 [Compound A, 1-methyl-4-[(2-thienyl)-(4-fluorophenyl)]methylenepiperidine, reference compound]
ED50 [1, 2]: 100 mg/kg | ED50 [1, 3]: 2.8 mg/kg

Cc1csc(C(=C2CCN(C)CC2)c2ccc(F)cc2)c1 [Example 3, 1-methyl-4-[(4-methyl-2-thienyl)-(4-fluoropheny)]methylene-piperidine]
CATR score at max dose (catalepsy; at 75 mg/kg, theoretical maximum score 6, 60 and 120 minutes): 0.2 | ED50 (Catalepsy in rats (CATR)): > 75 mg/kg | ED50 [1, 2]: 8.6 mg/kg | ED50 [1, 3]: 1.5 mg/kg

CN(C)CCCN1c2ccccc2Sc2ccc(Cl)cc21 [chlorpromazine, reference compound]
CATR score at max dose (catalepsy; rat, in vivo, 14 mg/kg): 5.3 | ED50 (Catalepsy in rats (CATR)): 4.8 mg/kg

CN1CCC(=C(c2ccccc2)c2ccc(Cl)s2)CC1 [Compound C, 1-methyl-4-[(-5-chloro-2-thienyl)-phenyl]methylenepiperidine, reference compound]
ED50 [1, 3]: 22 mg/kg

CN1CCC(=C(c2ccccc2)c2cccs2)CC1 [Compound B, 1-methyl-4-(2-thienyl)-phenyl-methylenepiperidine, reference compound]
ED50 [1, 3]: 22 mg/kg

CN1CCC(=C(c2ccc(F)cc2)c2cc(Cl)cs2)CC1 [Example 2, 1-methyl-4-[(4-chloro-2-thienyl)-(4-fluorophenyl)]-methylene-piperidine]
CATR score at max dose (catalepsy; at 56 mg/kg, theoretical maximum score 6, 60 and 120 minutes): 0.2 | ED50 (Catalepsy in rats (CATR)): > 50 mg/kg | ED50 [1, 2]: 5 mg/kg | ED50 [1, 3]: 0.6 mg/kg
